What was measured:
[1] = Absorption and photoluminescence spectroscopy in solution; type: physicochemical; conditions: for absorption band (higher-energy band of the anthracene moiety) / absorption, vibronic peak of the anthracene moiety (lower-energy): high dilution; for emission band, vibronic peaks of the anthracene moiety: fluorescence spectroscopy, data not shown; for τ (emission lifetime): 405 nm excitation
From the text: The close proximity of the anthracene units in the mechanically interlocked cyclophanes was expected to give rise to remarkable optical properties distinct from those of the free cyclophanes. We explored the absorption and fluorescence properties of all compounds at high dilution (4×10^−7 M) to avoid reabsorption processes^40 and aggregation effects.^17 All of the optical parameters are summarized in Tables 1 and 2. Initially, we explored the influence of the pyridine/pyridinium units on the optical properties of both ^2,6AnBox^4+ and ^9,10AnBox^4+ cyclophanes. The presence of two pyridinium units within the linker dramatically affect the optical properties of the anthracene moiety. Although ^2,6AnBPY (FIG. 5C) and ^9,10AnBPY display^41 characteristic vibronic peaks associated with the anthracene moiety at 290 and 400 nm, ^2,6AnDB^2+ and ^9,10AnDB^2+ display a shift of the band at 290 to 330 nm (FIG. 5A) and the emergence of a new featureless broad band at 450 nm associated with CT from the anthracene moiety to the pyridinium unit. It is noteworthy that phenylene-bridged bipyridyl linkers (ExBIPY) display^35 a single absorption peak at 325 nm in MeCN, while the anthracene moiety leads to the emergence of some push-pull D-A character.
All reagents were purchased from commercial suppliers (Aldrich or Fisher) and used without further purification. Anthracene derivatives, 9,10-bis(4-pyridyl)anthracene (^9.^10AnBPY) and 2,6-bis(4-pyridyl)anthracene (^2,6AnBPY) were synthesized following^1,2 reports in the literature. All reactions and manipulations were carried out under a dry N2 atmosphere using standard Schlenk. Thin-layer chromatography (TLC) was performed on silica gel 60 F254 TLC plates (Merck). Column chromatography was carried out using CombiFlash® Automation Systems (Teledyne ISCO) employing both normal phase (RediSep Rf Gold® Normal-Phase Silica) and reverse phase (RediSep Rf Gold® Reversed-phase C18). […] All the spectra were baseline-corrected with a MeCN blank sample. The photoluminescence spectra of all samples were obtained with a Fluorolog-3 spectrafluorometer (Horiba Jobin Yvon) in a 2-mm quartz cuvette with 3-nm slit width and a front-phase geometry. The time-correlated single photon counting setup is described elsewhere.^3 Nuclear magnetic resonance (NMR) spectra were recorded on a Bruker Avance III 500 and 600 MHz spectrometers, with working frequencies of 500 and 600 MHz (′H NMR) and 125 MHz (^13C NMR), respectively. Chemical shifts are reported in ppm relative to the signals corresponding to the residual non-deuterated solvents (CD3CN: δ1−1=1.94 ppm and δC=1.32 ppm). High-resolution mass spectra (HRMS) were measured on an Agilent 6210 Time of Flight (TOF) LC-MS, using an ESI source, coupled with Agilent 1100 HPLC stack, using direct infusion (0.6 mL min ^−1). The binding constants were determined using this link: website http://supramolecular.org.^4

[2] = 1H NMR titration of guests into the ^2,6AnBox^4+ cavity (binding constant); conditions: 1H NMR titration in CD3CN; for association constant Ka: without salt; for binding constant Ka: high concentration of salt (saturated with KPF6, 140 mM)
From the text: The cavity of ^2,6AnBox^4+ is able to bind an anthracene molecule in a face-to-face manner as a result of [π . . . π] interactions. The formation of anthracene⊂^2,6AnBox^4+ (An⊂^2,6AnBox^4+) was confirmed by ^1H NMR titration in CD3CN. […] Further evidence for the formation of the 1:1 complex (anthracene⊂^2,6AnBox^4+) came from XRD analysis. […] It is remarkable that, upon addition of the anthracene guest to the cavity of ^2,6AnBox^4+, a tubular superstructure is formed along the c-axis, whereas along the b-axis, face-to-face [π . . . π] stacks form between the anthracene units. Apparently, the long-range [π . . . π] distances of 3.5 Å between the anthracene units are superstructure-directing in anthracene⊂^2,6AnBox^4+ instead of the anthracene-pyridinium DA interactions. The formation of the anthracene⊂^2,6AnBox^4+ complex implies that [π . . . π] interactions between the anthracene units can be sufficient to overcome the Coulombic repulsion and form the homo[2]catenane, ^2,6AnHC.8PF6.
Preparation of ^2,6AnHC.8PF6 was achieved following two synthetic procedures which consisted of mixing ^2,6AnBox.4PF6 with its precursors ^2,6AnDB.2PF6, and ^2,6AnBPY in the absence (Protocol I) or presence (Protocol II) of tetrabutylammonium hexafluorophosphate (TBAPF6). See Scheme 6. Our attempts to prepare ^2,6AnHC.8PF6 following Protocol I produced very low yields (<5%) of the catenane.
In order to evaluate whether the addition of salt would enhance the synthesis of the rigid ^2,6AnHC.8PF6 homo[2]catenane, we investigated the effects of the addition of tetrabutylammonium hexafluorophosphate (TBAPF6) salt on the formation of the ^2,6AnDB^2+⊂^2,6AnBox^4+ inclusion complex. […] Remarkably, the change in color of the solution from yellow to red implies^38 an increase in the strength of the ^2,6AnDB^2+⊂^2,6AnBox^4+ host-guest complex. In order to estimate the magnitude of the association constant between ^2,6AnDB^2+ and ^2,6AnBox^4+, we prepared (FIG. 2A-2C, Scheme 8) an anthracene-based dicationic model DM^2+. […] Consequently, the efficiency of the catenane synthesis is also found to be sensitive to the addition of TBAPF6. At a salt concentration of 250 mM, the homo[2]catenane ^2,6AnHC.8PF6 was prepared by mixing ^2,6AnBox.4PF6, ^2,6AnDB.2PF6, and ^2,6AnBPY in a 1:2:2 molar ratio in MeCN resulting in an isolated yield of up to 40%. See Scheme 2. The ^1H NMR spectrum of ^2,6AnHC^8+ was recorded at room temperature in CD3CN. Only three signals are observed which can be assigned to the pyridinium, methylene, and phenylene protons. All other resonances associated with the anthracene units disappear or are broadened at room temperature. In the temperature dependent 41 NMR spectra (data not shown), the signals for the anthracene protons reappear at low temperature and have been assigned based on 2D ROESY NMR spectroscopic measurements. These experiments confirm the dynamic nature of the homo[2]catenane in which the two mechanically interlocked rings undergo relative co-conformational changes at room temperature. The catenane was also characterized by high-resolution mass spectrometry (HR-MS). A characteristic peak corresponding to [M-3 PF6]^3+ is present in the mass spectrum (data no shown) at m/z of 823.7819 which compares well with the calculated value for m/z of 823.7814.
All reagents were purchased from commercial suppliers (Aldrich or Fisher) and used without further purification. Anthracene derivatives, 9,10-bis(4-pyridyl)anthracene (^9.^10AnBPY) and 2,6-bis(4-pyridyl)anthracene (^2,6AnBPY) were synthesized following^1,2 reports in the literature. All reactions and manipulations were carried out under a dry N2 atmosphere using standard Schlenk. Thin-layer chromatography (TLC) was performed on silica gel 60 F254 TLC plates (Merck). Column chromatography was carried out using CombiFlash® Automation Systems (Teledyne ISCO) employing both normal phase (RediSep Rf Gold® Normal-Phase Silica) and reverse phase (RediSep Rf Gold® Reversed-phase C18). […]

[3] = reported in the literature; cited from earlier work
MIA PACA2 cancer cells = assay: Cell growth / toxicity by phase contrast imaging over 48 hours; type: cell-based; conditions: any concentration tested
Description: Cells were cultured for 4 hours then treated with the compounds at a range of concentrations. Upon treatment, cells were placed in a BioTek LionheartFX system, where they were imaged every 20 minutes for 48 hours, under standard culture conditions (37° C., 5% CO2). Phase contrast images were processed and analyzed with BioTek Gen5 analysis software to identify cell number at the start and end of the culture time. There was no significant difference in percent growth either between the two compounds or between the different concentrations and the untreated (0 mM) control.
Cells were grown in standard DMEM (supplemented with 10% Fetal Bovine Serum and 1% Penicillin-Streptomycin, supplier=Corning). Cells were seeded into imaging coverglass chamber 40 hours prior to treatment. Compounds were resuspended in deionized H2O then diluted to the final concentration in media. Cells were treated with compounds for 6 hours prior to imaging.

For c1ccc2c(-c3ccncc3)c3ccccc3c(-c3ccncc3)c2c1 [^9,10AnBPY, 9,10-bis(4-pyridyl)anthracene, reference compound], which “absorption band (higher-energy band of the anthracene moiety)” value ([1]; MeCN) is on record?
The value was 290 nm.

And the “absorption, vibronic peak of the anthracene moiety (lower-energy)” value ([1]; MeCN)?
The value was 400 nm.

And the “emission band, vibronic peaks of the anthracene moiety” value [1]?
Its value is 440 nm.

For BrCc1ccc(C[n+]2ccc(-c3c4ccccc4c(-c4cc[n+](Cc5ccc(CBr)cc5)cc4)c4ccccc34)cc2)cc1 [^9,10AnDB^2+], which “charge transfer (CT) absorption band” value ([1]; MeCN) is on record?
Its value is 450 nm.

And the “absorption band (higher-energy band of the anthracene moiety)” value ([1]; MeCN)?
Its value is 330 nm.

Which results are given for c1ccc2cc3ccccc3cc2c1 [anthracene, reference compound]?
association constant Ka [2]: 125 M⁻¹; emission lifetime [3]: ~18 ns

With [Cl-].[Cl-].[Cl-].[Cl-].c1cc2ccc1C[n+]1ccc(cc1)-c1ccc3cc4cc(ccc4cc3c1)-c1cc[n+](cc1)Cc1ccc(cc1)C[n+]1ccc(cc1)-c1ccc3cc4cc(ccc4cc3c1)-c1cc[n+](cc1)C2 [^2,6AnBox⋅4Cl] as the molecule, how does the “toxicity to the cells” value (MIA PACA2 cancer cells) read?
The value was “Neither the catenane (^2,6AnHC.8Cl) nor the cyclophane (^2,6AnBox⋅4Cl) are toxic to the cells at any concentration tested”.

Which “binding constant Ka” value [2] does the source give for c1ccc(C[n+]2ccc(-c3ccc4cc5cc(-c6cc[n+](Cc7ccccc7)cc6)ccc5cc4c3)cc2)cc1 [DM^2+] here?
The value was 611 M⁻¹.

What about the “association constant Ka” value [2] of the same molecule?
Its value is 40 M⁻¹.

Which “binding constant Ka” value [2] does the source give for c1ccc(C[n+]2ccc(-c3ccc4cc5cc(-c6ccncc6)ccc5cc4c3)cc2)cc1 [MM^+] here?
The value was 540 M⁻¹.

What about the “association constant Ka” value [2] of the same molecule?
The value was 102 M⁻¹.

Which “absorption band (higher-energy band of the anthracene moiety)” value ([1]; MeCN) does the source give for c1cc(-c2ccc3cc4cc(-c5ccncc5)ccc4cc3c2)ccn1 [^2,6AnBPY, 2,6-bis(4-pyridyl)anthracene, reference compound] here?
The value was 290 nm.

And the “absorption, vibronic peak of the anthracene moiety (lower-energy)” value ([1]; MeCN)?
The value was 400 nm.

And the “emission band, vibronic peaks of the anthracene moiety” value [1]?
Its value is 440 nm.

Which “association constant Ka” value [2] does the source give for BrCc1ccc(C[n+]2ccc(-c3ccc4cc5cc(-c6cc[n+](Cc7ccc(CBr)cc7)cc6)ccc5cc4c3)cc2)cc1 [^2,6AnDB^2+] here?
Its value is 42 M⁻¹.

What about the “Φ (PL quantum yield)” value ([1]; 4 × 10^−7 M, MeCN) of the same molecule?
Its value is 7.0%.

And the λabs ([1]; 4 × 10^−7 M, MeCN)?
Its λabs is 453 nm.

And the λem ([1]; 4 × 10^−7 M, MeCN)?
Its λem is 542 nm.

What about the “τ (emission lifetime)” value ([1]; 4 × 10^−7 M, MeCN) of the same molecule?
The value was 10 ns.

And the “charge transfer (CT) absorption band” value ([1]; MeCN)?
The value was 450 nm.

What about the “absorption band (higher-energy band of the anthracene moiety)” value ([1]; MeCN) of the same molecule?
Its value is 330 nm.

And the “concentration dependence of excimer/exciplex emission” value ([1]; from high concentration to high dilution (10^−8 M))?
Its value is “absence of excimer emission at high concentration”.

Which results are given for c1ccc2c3c4ccccc4c(c2c1)-c1cc[n+](cc1)Cc1ccc(cc1)C[n+]1ccc(cc1)-c1c2ccccc2c(c2ccccc12)-c1cc[n+](cc1)Cc1ccc(cc1)C[n+]1ccc-3cc1 [^9,10AnBox^4+]?
Φ (PL quantum yield) ([1]; 4 × 10^−7 M, MeCN): 1.3%; λabs ([1]; 4 × 10^−7 M, MeCN): 415 nm; λem ([1]; 4 × 10^−7 M, MeCN): 566 nm; τ (emission lifetime) ([1]; 4 × 10^−7 M, MeCN): 8.7 ns; Stokes shifts (δ) ([1]; DMF, 4 × 10^−7 M): 6793 cm⁻¹; λabs ([1]; DMF, 4 × 10^−7 M): 402 nm; λem ([1]; DMF, 4 × 10^−7 M): 576 nm; λexc ([1]; DMF, 4 × 10^−7 M): 414 nm; Stokes shifts (δ) ([1]; EtOH, 4 × 10^−7 M): 6502 cm⁻¹; λabs ([1]; EtOH, 4 × 10^−7 M): 409 nm; λem ([1]; EtOH, 4 × 10^−7 M): 574 nm; λexc ([1]; EtOH, 4 × 10^−7 M): 418 nm; Stokes shifts (δ) ([1]; H2O, 4 × 10^−7 M): 6199 cm⁻¹; λabs ([1]; H2O, 4 × 10^−7 M): 419 nm; λem ([1]; H2O, 4 × 10^−7 M): 566 nm; λexc ([1]; H2O, 4 × 10^−7 M): 419 nm; Stokes shifts (δ) ([1]; Me2SO, 4 × 10^−7 M): 6966 cm⁻¹; λabs ([1]; Me2SO, 4 × 10^−7 M): 403 nm; λem ([1]; Me2SO, 4 × 10^−7 M): 570 nm; λexc ([1]; Me2SO, 4 × 10^−7 M): 408 nm; Stokes shifts (δ) ([1]; MeCN, 4 × 10^−7 M (Table 2)): 6371 cm⁻¹; λabs ([1]; MeCN, 4 × 10^−7 M (Table 2)): 410 nm; λem ([1]; MeCN, 4 × 10^−7 M (Table 2)): 566 nm; λexc ([1]; MeCN, 4 × 10^−7 M (Table 2)): 416 nm; Stokes shifts (δ) ([1]; MeOH, 4 × 10^−7 M): 6282 cm⁻¹; λabs ([1]; MeOH, 4 × 10^−7 M): 402 nm; λem ([1]; MeOH, 4 × 10^−7 M): 565 nm; λexc ([1]; MeOH, 4 × 10^−7 M): 417 nm

— US11977028B2, “Mechanical-bond-induced exciplex fluorescence” (Northwestern University, priority 2020, dated 2024)
